In patent publication US20230257372A1 (CHONG KUN DANG PHARMACEUTICAL CORP., priority 2020, published 2023):
Read-outs that look alike come from different tables or passages of the source.

Tests used:
human recombinant HDAC1 = target: T1, human recombinant HDAC1 (Homo sapiens, UniProt Q13547); test: HDAC1 enzyme activity inhibition (HDAC Fluorimetric Drug Discovery Kit); format: biochemical; conditions: read-out: HDAC1
T1 construct: purchased Enzo Life Science, Inc. BML-SE456
Summary of the method: (§1)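 Enzyme at 0.3 µg per well was reacted with 10 μM fluorogenic substrate in presence of 5-fold diluted compound, 30° C for 60 min.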

human recombinant HDAC6 = target: T2, human recombinant HDAC6 (Homo sapiens, UniProt Q9UBN7); test: HDAC6 enzyme activity inhibition (HDAC Fluorimetric Drug Discovery Kit); format: biochemical
T2 construct: purchased Calbiochem Inc. 382180
T2 sequence (Q9UBN7 1-1215): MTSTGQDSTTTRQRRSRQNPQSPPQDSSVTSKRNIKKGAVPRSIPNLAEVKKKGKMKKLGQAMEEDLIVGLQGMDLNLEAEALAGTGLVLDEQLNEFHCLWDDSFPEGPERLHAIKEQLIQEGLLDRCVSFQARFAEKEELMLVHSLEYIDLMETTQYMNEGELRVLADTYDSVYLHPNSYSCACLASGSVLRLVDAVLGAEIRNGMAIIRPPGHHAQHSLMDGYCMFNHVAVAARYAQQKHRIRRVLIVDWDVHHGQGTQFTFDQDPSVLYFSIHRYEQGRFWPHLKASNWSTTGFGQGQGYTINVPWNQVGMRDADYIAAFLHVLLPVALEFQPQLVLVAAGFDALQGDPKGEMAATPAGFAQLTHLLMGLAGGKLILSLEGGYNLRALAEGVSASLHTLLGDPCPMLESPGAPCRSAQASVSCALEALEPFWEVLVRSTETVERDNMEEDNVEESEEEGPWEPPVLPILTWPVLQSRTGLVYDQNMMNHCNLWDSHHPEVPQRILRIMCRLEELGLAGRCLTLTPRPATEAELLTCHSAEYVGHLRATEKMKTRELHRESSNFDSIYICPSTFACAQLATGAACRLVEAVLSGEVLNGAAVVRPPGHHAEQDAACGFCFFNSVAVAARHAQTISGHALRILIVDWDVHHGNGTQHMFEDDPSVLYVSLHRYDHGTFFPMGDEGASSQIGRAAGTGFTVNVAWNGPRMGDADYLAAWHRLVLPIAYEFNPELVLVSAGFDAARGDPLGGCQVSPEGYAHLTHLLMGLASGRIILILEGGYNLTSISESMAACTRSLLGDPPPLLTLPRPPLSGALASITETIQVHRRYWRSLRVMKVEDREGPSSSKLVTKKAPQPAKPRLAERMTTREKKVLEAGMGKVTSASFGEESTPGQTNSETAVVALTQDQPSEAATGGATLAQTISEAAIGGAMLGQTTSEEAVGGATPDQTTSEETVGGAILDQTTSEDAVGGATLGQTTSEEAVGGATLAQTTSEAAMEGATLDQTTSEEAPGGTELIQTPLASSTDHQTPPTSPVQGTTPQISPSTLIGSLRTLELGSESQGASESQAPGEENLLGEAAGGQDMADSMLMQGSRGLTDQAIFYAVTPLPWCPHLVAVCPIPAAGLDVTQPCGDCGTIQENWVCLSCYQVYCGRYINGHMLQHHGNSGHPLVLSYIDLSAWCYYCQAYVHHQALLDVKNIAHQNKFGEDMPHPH
Summary of the method: as §1

[1] = human recombinant HDAC1, IC50 calculated with GraphPad Prism
[2] = human recombinant HDAC6, IC50 calculated with GraphPad Prism
[3] = human recombinant HDAC1, Fluor de Lys substrate, 30° C. 60 minutes
[4] = human recombinant HDAC6, same protocol as HDAC1

T1 sequence (Q13547 whole entry): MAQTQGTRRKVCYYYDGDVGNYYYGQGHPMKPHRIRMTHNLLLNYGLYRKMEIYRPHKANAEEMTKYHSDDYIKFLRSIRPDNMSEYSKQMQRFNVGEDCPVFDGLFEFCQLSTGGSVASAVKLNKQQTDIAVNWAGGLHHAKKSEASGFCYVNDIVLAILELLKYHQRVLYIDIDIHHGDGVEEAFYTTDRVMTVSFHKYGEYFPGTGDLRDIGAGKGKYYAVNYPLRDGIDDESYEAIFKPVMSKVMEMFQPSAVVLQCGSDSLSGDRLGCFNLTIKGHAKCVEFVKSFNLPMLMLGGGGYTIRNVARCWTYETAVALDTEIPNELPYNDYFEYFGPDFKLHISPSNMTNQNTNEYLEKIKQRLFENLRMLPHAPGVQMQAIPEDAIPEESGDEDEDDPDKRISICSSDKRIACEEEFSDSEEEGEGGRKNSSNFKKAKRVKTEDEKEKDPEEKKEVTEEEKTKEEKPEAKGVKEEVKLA

Compound | IC50 (human recombinant HDAC1; [1]) [µM] | HDAC6 selectivity (fold) (human recombinant HDAC6; HDAC1 IC50 / HDAC6 IC50) | IC50 (human recombinant HDAC6; [2]) [µM] | IC50 (human recombinant HDAC1; [3]) [µM] | HDAC6 selectivity (fold) (human recombinant HDAC6; HDAC6 over HDAC1) | IC50 (human recombinant HDAC6; [4]) [µM]
CC(C)(F)C(=O)Nc1cccc(-c2cn(Cc3ccc(-c4nnc(C(F)F)o4)cc3)nn2)c1 [Compound 4328, N-(3-(1-(4-(5-(difluoromethyl)-1,3,4-oxadiazol-2-yl)benzyl)-1H-1,2,3-triazol-4-yl)phenyl)-2-fluoro-2-methylpropanamide] | > 50 | 846 | 0.0591 | – | – | –
Fc1cc(-c2nnc(C(F)F)o2)cnc1Cn1cc(-c2cccnc2)nn1 [Compound 18305, 2-(difluoromethyl)-5-(5-fluoro-6-((4-(pyridin-3-yl)-1H-1,2,3-triazol-1-yl)methyl)pyridin-3-yl)-1,3,4-oxadiazole] | – | – | – | > 50 | 539 | 0.0927
CC(C)N1CCN(c2cccc(-c3cn(Cc4ccc(-c5nnc(C(F)F)o5)cc4F)nn3)c2F)CC1 [Compound 4578] | – | – | – | > 50 | 1923 | 0.026
Fc1cc(-c2nnc(C(F)F)o2)cnc1Cn1cc(-c2cccs2)nn1 [Compound 17984, 2-(difluoromethyl)-5-(5-fluoro-6-((4-(thiophen-2-yl)-1H-1,2,3-triazol-1-yl)methyl)pyridin-3-yl)-1,3,4-oxadiazole] | – | – | – | > 50 | 884 | 0.0565
CC(C)N1CCN(c2cc(-c3cn(Cc4ccc(-c5nnc(C(F)F)o5)cn4)nn3)ccn2)CC1 [Compound 4592, 2-(difluoromethyl)-5-(6-((4-(2-(4-isopropylpiperazin-1-yl)pyridin-4-yl)-1H-1,2,3-triazol-1-yl)methyl)pyridin-3-yl)-1,3,4-oxadiazole] | – | – | – | > 50 | 3246 | 0.0154
FC(F)c1nnc(-c2ccc(Cn3cc(-c4cccc5c4CN(C4CCC4)C5)nn3)cc2)o1 [Compound 4532, 2-(4-((4-(2-cyclobutylisoindolin-4-yl)-1H-1,2,3-triazol-1-yl)methyl)phenyl)-5-(difluoromethyl)-1,3,4-oxadiazole] | – | – | – | > 50 | 327 | 0.153
Cc1cnc(-c2cn(Cc3ccc(-c4nnc(C(F)F)o4)cc3F)nn2)s1 [Compound 17857, 2-(difluoromethyl)-5-(3-fluoro-4-((4-(5-methylthiazol-2-yl)-1H-1,2,3-triazol-1-yl)methyl)phenyl)-1,3,4-oxadiazole] | – | – | – | > 50 | 809 | 0.0618
CCN1CCN(c2cccc(-c3cn(Cc4ccc(-c5nnc(C(F)F)o5)cc4)nn3)c2)CC1 [Compound 4368, 2-(difluoromethyl)-5-(4-((4-(3-(4-ethylpiperazin-1-yl)phenyl)-1H-1,2,3-triazol-1-yl)methyl)phenyl)-1,3,4-oxadiazole] | > 50 | 1533 | 0.0326 | – | – | –
Fc1cc(-c2nnc(C(F)F)o2)ccc1Cn1cc(-c2cccc3c2CN(C2CCC2)C3)nn1 [Compound 4537, 2-(4-((4-(2-cyclobutylisoindolin-4-yl)-1H-1,2,3-triazol-1-yl)methyl)-3-fluorophenyl)-5-(difluoromethyl)-1,3,4-oxadiazole] | – | – | – | > 50 | 657 | 0.076
Cc1cc2ccc(-c3cn(Cc4ccc(-c5nnc(C(F)F)o5)cc4)nn3)cc2[nH]1 [Compound 4288] | > 50 | 486 | 0.103 | – | – | –
CN1CCN(Cc2cccc(-c3cn(Cc4ccc(-c5nnc(C(F)F)o5)cc4)nn3)c2)CC1 [Compound 4414] | > 50 | 627 | 0.0797 | – | – | –
CN1CCN(c2cccc(-c3cn(Cc4ccc(-c5nnc(C(F)F)o5)cc4)nn3)c2F)CC1 [Compound 4483, 2-(difluoromethyl)-5-(4-((4-(2-fluoro-3-(4-methylpiperazin-1-yl)phenyl)-1H-1,2,3-triazol-1-yl)methyl)phenyl)-1,3,4-oxadiazole] | > 50 | 1466 | 0.0341 | – | – | –
CC1CCN(Cc2ccc(-c3cn(Cc4ccc(-c5nnc(C(F)F)o5)cc4F)nn3)cc2)CC1 [Compound 4611, 2-(difluoromethyl)-5-(3-fluoro-4-((4-(4-((4-methylpiperidin-1-yl)methyl)phenyl)-1H-1,2,3-triazol-1-yl)methyl)phenyl)-1,3,4-oxadiazole] | – | – | – | > 50 | 2793 | 0.0179
CN1Cc2cccc(-c3cn(Cc4ccc(-c5nnc(C(F)F)o5)cc4)nn3)c2C1 [Compound 4529, 2-(difluoromethyl)-5-(4-((4-(2-methylisoindolin-4-yl)-1H-1,2,3-triazol-1-yl)methyl)phenyl)-1,3,4-oxadiazole] | – | – | – | > 50 | 313 | 0.16
CN1CCC(c2cccc(-c3cn(Cc4ncc(-c5nnc(C(F)F)o5)cc4F)nn3)c2)CC1 [Compound 18869, 2-(difluoromethyl)-5-(5-fluoro-6-((4-(3-(1-methylpiperidin-4-yl)phenyl)-1H-1,2,3-triazol-1-yl)methyl)pyridin-3-yl)-1,3,4-oxadiazole] | – | – | – | > 50 | 1075 | 0.0465
CS(=O)(=O)N1CCC(c2cn(Cc3ccc(-c4nnc(C(F)F)o4)cn3)nn2)CC1 [Compound 3812] | > 50 | 446 | 0.112 | – | – | –
CN(C)[C@@H]1CCN(Cc2ccc(-c3cn(Cc4ccc(-c5nnc(C(F)F)o5)cc4F)nn3)cc2)C1 [Compound 4605, (R)-1-(4-(1-(4-(5-(difluoromethyl)-1,3,4-oxadiazol-2-yl)-2-fluorobenzyl)-1H-1,2,3-triazol-4-yl)benzyl)-N,N-dimethylpyrrolidin-3-amine] | – | – | – | > 50 | 2380 | 0.021
CCC(F)(CC)CN1CCC(c2cccc(-c3cn(Cc4ccc(-c5nnc(C(F)F)o5)cc4F)nn3)c2)CC1 [Compound 4350, 2-(difluoromethyl)-5-(4-((4-(3-(1-(2-ethyl-2-fluorobutyl)piperidin-4-yl)phenyl)-1H-1,2,3-triazol-1-yl)methyl)-3-fluorophenyl)-1,3,4-oxadiazole] | > 50 | 82 | 0.605 | – | – | –
CN1CCc2ccc(-c3cn(Cc4ccc(-c5nnc(C(F)F)o5)cc4F)nn3)cc2C1 [Compound 4363, 2-(difluoromethyl)-5-(3-fluoro-4-((4-(2-methyl-1,2,3,4-tetrahydroisoquinolin-7-yl)-1H-1,2,3-triazol-1-yl)methyl)phenyl)-1,3,4-oxadiazole] | > 50 | 1385 | 0.0361 | – | – | –
CC(C)N1CCC(c2cccc(-c3cn(Cc4ccc(-c5nnc(C(F)F)o5)cc4F)nn3)c2)CC1 [Compound 4292, 2-(difluoromethyl)-5-(3-fluoro-4-((4-(3-(1-isopropylpiperidin-4-yl)phenyl)-1H-1,2,3-triazol-1-yl)methyl)phenyl)-1,3,4-oxadiazole] | > 50 | 967 | 0.0517 | – | – | –
Fc1cc(-c2nnc(C(F)F)o2)cnc1Cn1cc(-c2ccccc2CN2CCC2)nn1 [Compound 18822, 2-(6-((4-(2-(azetidin-1-ylmethyl)phenyl)-1H-1,2,3-triazol-1-yl)methyl)-5-fluoropyridin-3-yl)-5-(difluoromethyl)-1,3,4-oxadiazole] | – | – | – | > 50 | 98 | 0.505
Cc1nc(-c2ccccc2)cn1Cc1ccc(-c2nnc(C(F)F)o2)cn1 [Compound 3945, 2-(difluoromethyl)-5-(6-((2-methyl-4-phenyl-1H-imidazol-1-yl)methyl)pyridin-3-yl)-1,3,4-oxadiazole] | > 50 | 258 | 0.193 | – | – | –
